These results are taken from paper PMC6471591, “Preparation of Sesquiterpene Lactone Derivatives: Cytotoxic Activity and Selectivity of Action” (Molecules, 2019).

Each structure is given as a SMILES string. Where two headings read alike, the source gives them in different places.

In one data set the test system is SW1573 cells. Put plainly: Antiproliferative SRB assay (NCI protocol), 48 h. In kind it is cell-based, human. Particulars: for GI50: Homo sapiens, SW1573 (non-small cell lung), SRB, 48 h drug exposure, read-out: 50% growth inhibition (GI50) ± SD, SW1573; for Selectivity Index, SW1573: splenocyte CC50 versus SW1573 GI50. As to the method:
(§1) In vitro antiproliferative activity was evaluated using the protocol of the National Cancer Institute (NCI) after 48 h of drug exposure using the sulforhodamine B (SRB) assay. […] We cannot discard that increasing lipophilicity may well result in an increase in cytotoxicity in vitro.
(§2) The following human solid tumor cell lines were used in this study: HBL-100 (breast), HeLa (cervix), SW1573 (non-small cell lung), T-47D (breast), A549 (lung), and WiDr (colon). Cells were maintained in 25 cm^2 culture flasks in RPMI 1640 supplemented with 5% heat-inactivated fetal calf serum and 2 mM L-glutamine in a 37 °C, 5% CO2, 95% humidified air incubator. Exponentially growing cells were trypsinized and resuspended in antibiotic containing medium (100 units penicillin G and 0.1 mg of streptomycin per mL). Single-cell suspensions displaying >97% viability by trypan blue dye exclusion test were subsequently counted. After counting, dilutions were made to give the appropriate cell densities for inoculation onto 96-well microtiter plates. Cells were inoculated in a volume of 100 μL per well at densities of 20,000 (WiDr), 15,000 (T-47D and A549), and 10,000 (HeLa, SW1573, and HBL-100) cells per well, based on their doubling times.
(§3) Chemosensitivity tests were performed using the SRB assay of the NCI with slight modifications. Briefly, pure compounds were initially dissolved in DMSO at 400 times the desired final maximum test concentration. Control cells were exposed to an equivalent concentration of DMSO (0.25% v/v, negative control). Each agent was tested in triplicate at different dilutions in the range 1–100 μM. Drug treatment started on day 1 after plating. Drug incubation periods were 48 h, after which cells were precipitated with 25 μL of ice-cold 50% (w/v) trichloroacetic acid and fixed for 60 min at 4 °C. Then, the SRB assay was performed. Optical density (OD) of each well was measured at 492 nm, using BioTek’s PowerWave XS Absorbance Microplate Reader (Highland Park, Winooski, VT, USA). Values were corrected for background OD from wells containing only culture medium. The percentage growth (PG) was calculated with respect to untreated control cells (C) at each level of drug concentrations based on the difference in OD at the start time (T0) and at the end of drug exposure (T), according to NCI formulas. Therefore, if T is greater than or equal to T0, the calculation is 100 × [(T–T0)/(C–T0)]. If T is lower than T0, denoting cell death, the calculation is 100 × [(T–T0)/(T0)]. The effect is defined as the growth percentage, where 50% growth inhibition (GI50) represents the concentration at which PG is +50. Based on these calculations, a PG value of 0 corresponds to the number of cells present at the beginning of drug exposure, while negative PG values denote net cell death.
Background: The SRB assay estimates cell density from bound dye.

A further data set has as its system WiDr cells. Put plainly: Antiproliferative SRB assay (NCI protocol), 48 h. In kind it is cell-based, human. Particulars: for GI50: Homo sapiens, WiDr (colon), SRB, 48 h drug exposure, read-out: 50% growth inhibition (GI50) ± SD, WiDr; for Selectivity Index, WiDr: splenocyte CC50 versus WiDr GI50. As to the method:
as §1, §2, §3

The subject of the next data set is T47-D cells. Put plainly: Antiproliferative SRB assay (NCI protocol), 48 h. In kind it is cell-based, human. Particulars: for GI50: Homo sapiens, T47D, T47-D (breast), SRB, 48 h drug exposure, read-out: 50% growth inhibition (GI50) ± SD, T47-D; for Selectivity Index, T47-D: splenocyte CC50 versus T47-D GI50. As to the method: as §1, §2, §3
In data set [1] the test system is A549 cells. Put plainly: Antiproliferative SRB assay (NCI protocol), 48 h. In kind it is cell-based, human. Particulars: splenocyte CC50 versus A549 GI50.
For data set [2], the system named is HBL100 cells. Put plainly: Antiproliferative SRB assay (NCI protocol), 48 h. In kind it is cell-based, human. Particulars: splenocyte CC50 versus HBL100 GI50.
For data set [3], the system named is human solid tumor cell lines (A549, HBL-100, HeLa, SW1573, T-47D, WiDr). Put plainly: Antiproliferative SRB assay, whole panel of tumor cell lines. In kind it is cell-based. The protocol: as §1, §2, §3
The test system of data set [4] is HeLa cells. Put plainly: Antiproliferative SRB assay (NCI protocol), 48 h. In kind it is cell-based, human. Particulars: splenocyte CC50 versus HeLa GI50.
The test system of data set [5] is A549 cells. Put plainly: Antiproliferative SRB assay (NCI protocol), 48 h. Particulars: Homo sapiens; A549 (lung), SRB, 48 h drug exposure; read-out: 50% growth inhibition (GI50) ± SD, A549. In kind it is cell-based. As to the method: as §1, §2, §3
In data set [6] the test system is HBL100 cells. Put plainly: Antiproliferative SRB assay (NCI protocol), 48 h. In kind it is cell-based. Particulars: Homo sapiens, HBL-100; HBL100 (breast), SRB, 48 h drug exposure; read-out: 50% growth inhibition (GI50) ± SD, HBL100. As to the method: as §1, §2, §3
The subject of data set [7] is HeLa cells. Put plainly: Antiproliferative SRB assay (NCI protocol), 48 h. Particulars: Homo sapiens; HeLa (cervix), SRB, 48 h drug exposure; read-out: 50% growth inhibition (GI50) ± SD, HeLa. In kind it is cell-based. The protocol:
as §1, §2, §3

The nature of data set [8]: Cytotoxicity on primary cell culture (propidium iodide, flow cytometry). In kind it is cell-based. As to the method:
The cytotoxicity of the sesquiterpene lactones and its derivatives was evaluated using mouse splenocytes. […] Cumanin derivatives (4–11) have shown CC50 values and selectivity indexes higher than natural compound 1. […] The incorporation of two triazole groups in cumanin (1) reduced cytotoxicity on normal cells and improved selectivity against tumor cell lines.
In a 96-well plate, spleen cells from Balb/c mouse (1.5 × 10^5) were incubated with different drug dilutions (200, 100, 50, 10, and 5 μg/mL) in RPMI medium containing 10% fetal calf serum. After 48 h of incubation at 37 °C (5% CO2), cells were harvested, washed once with PBS, and stained with 2.5 μg/mL propidium iodide (PI) for 5 min at room temperature. Subsequently, cell death was assessed by flow cytometry using a BD FACSaria II cytometer. Cells incubated only with a drug vehicle were used as a 100% viability control and death percentage was calculated according to the following formula: Death(%)=[1−(%PI^−cells)drug−treated/(%PI^−cells)100% viability control]×100.
Then the concentration capable of causing cell death in 50% of splenocytes (CC50) was determined using a non-linear regression approach.
(In flow cytometry, cells or beads pass a laser one at a time.)

By GI50 is commonly meant the concentration at which growth is held to half of that of the control. For the compound `C=C1C(=O)OC2CC(C)C3CC(OCc4cn(Cc5ccccc5)nn4)C(O)C3(C)CC12` (stereo not shown) [Compound 10], the GI50 came to 32 µM in the data set with SW1573 cells; 30 µM in the data set with WiDr cells; 37 µM with T47-D cells; 18 µM in the data set on A549 cells [5]; 29 µM with HBL100 cells [6]; 32 µM in the data set with HeLa cells [7]. Moreover, in the data set with SW1573 cells, the “Selectivity Index, SW1573” value is on record as 3.5. For the same compound, the “Selectivity Index, WiDr” value with WiDr cells is given as 3.8. Further, the “Selectivity Index, T47-D” value with T47-D cells was found to be 3.1. In addition, the “Selectivity Index, A549” value in the data set with A549 cells [1] came to 6.3. In addition, the “Selectivity Index, HBL100” value with HBL100 cells [2] is 3.9. For the same compound, the “antiproliferative activity in words” value in data set [3] (tumor cell line panel, compared to cumanin (1)) is recorded as “moderate activity”. For the same compound, the “Selectivity Index, HeLa” value in the data set on HeLa cells [4] came to 3.5. For the same compound, in data set [8] (primary mouse splenocytes (spleen cells), Balb/c mouse spleen cells, 48 h incubation, PI staining, read-out: CC50 ± SD, splenocytes (concentration that causes 50% cell death)), the CC50 at 48 h was 114 µM.
As for `C=C1C(=O)O[C@@H]2C[C@@H](C)[C@@H]3C=CC(=O)[C@@]3(C)[C@@H](O[Si](C)(C)C)[C@H]12` [Compound 13], the GI50 in the data set with SW1573 cells is 0.28 µM; in the data set on WiDr cells it was 0.56 µM; with T47-D cells it was 0.29 µM; in data set [3] (Homo sapiens, all tested tumor cell lines, SRB, 48 h, read-out: GI50 values, range over all tested cell lines) it was 0.15 to 0.59 µM; in the data set on A549 cells [5] it was 0.59 µM; with HBL100 cells [6], 0.36 µM. For the same compound, the GI50 in the data set on HeLa cells [7] came to 0.19 µM. Moreover, the “Selectivity Index, SW1573” value with SW1573 cells is given as 3.9. Also, the “Selectivity Index, WiDr” value in the data set with WiDr cells amounted to 2.0. Also, the “Selectivity Index, T47-D” value in the data set on T47-D cells worked out at 3.8. In addition, the “Selectivity Index, A549” value in the data set with A549 cells [1] stood at 1.9. Further, the “Selectivity Index, HBL100” value in the data set on HBL100 cells [2] is listed as 3.0. For the same compound, the “Selectivity Index, HeLa” value in the data set with HeLa cells [4] is given as 5.8. In data set [8] (Balb/c, mouse), this compound had a CC50 at 48 h of 1.1 µM.
